Columns and labels:
Assay in all cases: relative viability (nuclei count vs DMSO), 5 days (fraction); higher = more cells survive
[1] = compound: Cc1ccccc1C(C(=O)NC1CCCCC1)N(C(=O)Cn1ccnc1C)c1cccc(F)c1 [IDH-C35] + COc1cccc2cc(-c3nc([C@H]4CC[C@H](C(=O)O)CC4)n4ncnc(N)c34)[nH]c12 [OSI-027] (partner 0.5 µM)
Method in brief: (§1)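 Relative viability is defined as nuclei in treated wells over nuclei in vehicle wells. Duplicate plates were run and medians reported. Lung cancer cell lines in 1536-well plates were dosed by pin tool one day after seeding, with one drug or with a fixed anchor-drug dose plus five library-drug doses (not always all listed) in √10 steps, and nuclei were counted after 5 days.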

[2] = compound: CC1=C(C(=NN1)C)CC2=C(C3=C(S2)N(C(=O)N(C3=O)C)CC(C)C)C(=O)N4C[C@@H](CO4)O + Nc1nc2[nH]cc(CCc3ccc(C(=O)N[C@@H](CCC(=O)O)C(=O)O)cc3)c2c(=O)[nH]1 [Pemetrexed] (partner 0.2 µM)
Method in brief: as §1

[3] = compound: Cc1ccccc1C(C(=O)NC1CCCCC1)N(C(=O)Cn1ccnc1C)c1cccc(F)c1 [IDH-C35] + Nc1ncn([C@H]2C[C@H](O)[C@@H](CO)O2)c(=O)n1 [Decitabine] (partner 2 µM)
Method in brief: as §1

[4] = compound: Cc1ccccc1C(C(=O)NC1CCCCC1)N(C(=O)Cn1ccnc1C)c1cccc(F)c1 [IDH-C35] + O=C(c1cc(Cc2n[nH]c(=O)c3ccccc23)ccc1F)N1CCN(C(=O)C2CC2)CC1 [Olaparib] (partner 8 µM)
Method in brief: as §1

| Cell Line | relative viability ([1]; first compound 0.08 µM) | relative viability ([1]; first compound 0.253 µM) | relative viability ([1]; first compound 0.8 µM) | relative viability ([1]; first compound 2.53 µM) | relative viability ([1]; first compound 8 µM) | relative viability ([2]; first compound 0.0025 µM) | relative viability ([2]; first compound 0.007906 µM) | relative viability ([2]; first compound 0.025 µM) | relative viability ([2]; first compound 0.07906 µM) | relative viability ([2]; first compound 0.25 µM) | relative viability ([3]; first compound 0.08 µM) | relative viability ([3]; first compound 0.253 µM) | relative viability ([3]; first compound 0.8 µM) | relative viability ([3]; first compound 2.53 µM) | relative viability ([3]; first compound 8 µM) | relative viability ([4]; first compound 0.08 µM) | relative viability ([4]; first compound 0.253 µM) | relative viability ([4]; first compound 0.8 µM) | relative viability ([4]; first compound 2.53 µM) | relative viability ([4]; first compound 8 µM) |
| --- | --- | --- | --- | --- | --- | --- | --- | --- | --- | --- | --- | --- | --- | --- | --- | --- | --- | --- | --- | --- |
| NCI-H1666 | 0.828 | 0.81 | 0.865 | 0.845 | 0.841 | 0.886 | 0.925 | 0.857 | 0.906 | 0.866 | 0.676 | 0.801 | 0.747 | 0.606 | 0.655 | 0.777 | 0.795 | 0.721 | 0.781 | 0.718 |
| LC-2-ad | 0.9 | 0.908 | 0.806 |  | 0.899 | 0.27 | 0.25 | 0.26 | 0.285 | 0.261 | 0.73 | 0.839 | 0.847 | 0.764 | 0.782 | 0.728 | 0.707 | 0.715 | 0.729 | 0.702 |
| SK-LU-1 | 0.377 | 0.336 | 0.347 | 0.357 | 0.326 | 0.96 | 0.719 | 0.736 | 0.745 | 0.846 | 0.636 | 0.687 | 0.592 | 0.65 | 0.654 | 0.422 | 0.399 | 0.396 | 0.484 | 0.448 |
| ChaGo-K-1 | 0.604 | 0.523 | 0.529 | 0.637 | 0.572 | 0.26 | 0.261 | 0.261 | 0.254 | 0.249 | 0.507 | 0.531 | 0.535 | 0.533 | 0.531 | 0.432 | 0.432 | 0.438 | 0.452 | 0.42 |
| COR-L 105 | 0.588 | 0.771 | 0.735 | 0.727 | 0.628 | 1.27 | 1.15 | 1.06 | 1.24 | 1.35 | 0.559 | 0.678 | 0.724 | 0.677 | 0.619 | 0.606 | 0.681 | 0.713 | 0.614 | 0.714 |
| NCI-H1975 | 0.64 | 0.71 | 0.778 | 0.741 | 0.763 | 0.317 | 0.297 | 0.283 | 0.268 | 0.287 | 0.442 | 0.403 | 0.379 | 0.438 | 0.364 | 0.809 | 0.805 | 0.815 | 0.8 | 0.735 |
| NCI-H1993 | 0.522 | 0.532 | 0.57 | 0.505 | 0.555 | 0.651 | 0.623 | 0.609 | 0.607 | 0.639 | 0.586 | 0.567 | 0.7 | 0.693 | 0.566 | 1.21 | 1.13 | 1.03 | 0.997 | 1.08 |
| RERF-LC-KJ | 0.562 | 0.631 | 0.643 | 0.614 | 0.597 | 0.46 | 0.468 | 0.463 | 0.511 | 0.503 | 0.727 | 0.69 | 0.753 | 0.809 | 0.681 | 0.853 | 0.896 | 0.963 | 0.985 | 0.869 |
| NCI-H23 | 0.582 | 0.635 | 0.558 | 0.392 | 0.453 | 0.825 | 0.635 | 0.689 | 0.697 | 0.697 | 0.332 | 0.35 | 0.336 | 0.332 | 0.312 | 0.306 | 0.329 | 0.33 | 0.321 | 0.381 |
| HCC-366 | 0.968 | 0.955 | 0.806 |  | 0.785 | 0.178 | 0.191 | 0.133 | 0.172 | 0.181 | 0.359 | 0.344 | 0.403 | 0.288 | 0.324 | 0.353 | 0.361 | 0.345 | 0.36 | 0.326 |
| EMC-BAC-2 | 0.364 | 0.366 | 0.383 | 0.39 | 0.385 | 0.46 | 0.468 | 0.415 | 0.44 | 0.454 | 1.03 | 0.988 | 1 | 0.925 | 0.993 | 0.496 | 0.509 | 0.472 | 0.507 | 0.482 |
| NCI-H2405 | 0.651 | 0.651 | 0.622 | 0.567 | 0.621 | 1.15 | 1.22 | 1.03 | 1 | 0.795 | 0.701 | 0.751 | 0.652 | 0.775 | 0.668 | 0.85 | 0.858 | 0.825 | 0.98 | 0.884 |
| NCI-H358 | 0.776 | 0.757 | 0.698 | 0.775 | 0.756 | 0.172 | 0.185 | 0.159 | 0.157 | 0.181 | 0.216 | 0.192 | 0.234 | 0.211 | 0.213 | 0.57 | 0.491 | 0.549 | 0.575 | 0.554 |
| NCI-H1944 | 0.418 | 0.415 | 0.413 | 0.442 | 0.392 | 0.614 | 0.681 | 0.609 | 0.594 | 0.622 | 0.43 | 0.416 | 0.43 | 0.416 | 0.437 | 0.402 | 0.429 | 0.451 | 0.391 | 0.407 |
| NCI-H2342 | 0.564 | 0.629 | 0.564 | 0.616 | 0.587 | 0.748 | 0.859 | 0.719 | 0.72 | 0.65 | 0.719 | 0.745 | 0.757 | 0.714 | 0.744 | 0.435 | 0.49 | 0.41 | 0.467 | 0.377 |
| EPLC-272H | 0.26 | 0.282 | 0.268 | 0.273 | 0.257 | 0.356 | 0.333 | 0.41 | 0.301 | 0.348 | 0.357 | 0.392 | 0.344 |  | 0.384 | 0.836 | 0.866 | 1.24 | 0.904 | 0.603 |
